Legend:
[1] = Cytotoxicity against human peripheral blood lymphocytes assessed as LDH release upto 50 uM after 24 hrs; conditions: pbl
[2] = Cytotoxicity against human peripheral blood lymphocytes at <60 uM after 4 days by CFDA/PI labeling assay; conditions: pbl, 96 h
[3] = Inhibition of phytohemagglutininin A-induced T-cell proliferation in human peripheral blood lymphocytes after 4 days by MTT assay; format: functional, cell-based; conditions: PBL, 96 h

Row | SMILES | Activity [1] | Activity [2] | IC50 [3]
1 | CC(=O)OC(C)(C)/C=C/C(=O)[C@@](C)(O)[C@H]1[C@H](O)C[C@@]2(C)[C@@H]3CC=C4[C@@H](C[C@H](O)[C@H](O)C4(C)C)[C@]3(C)CC[C@]12C [PICRACIN] | Non-toxic | < 10% | 1 µM
2 | CC(C)(O)/C=C/C(=O)[C@@](C)(O)[C@H]1[C@H](O)C[C@@]2(C)[C@@H]3CC=C4[C@@H](C[C@H](O)[C@H](O)C4(C)C)[C@]3(C)CC[C@]12C [DEACETYLPICRACIN] | Non-toxic | < 10% | 1 µM
